Experimental data taken from patent EP1561465A2, “Methods of use of fluoroquinolone compounds against bacteria” (LG Life Sciences, Ltd., priority 1999, dated 2001).
Converted amounts (≈) assume the structure as drawn. “And” between values parts separate entries of the source, which are not always exact repeats. Equal entries are not always repeated. Where two headings read alike, the source gives them in different places.

Experiments:
Aeromonas spp. [1] = test: MIC by agar dilution (NCCLS M7-A4), 288 enteropathogenic isolates, eight quinolones; format: cell-based
Salmonella spp. [2] = test: MIC by agar dilution (NCCLS M7-A4), 288 enteropathogenic isolates, gemifloxacin and 15 other antimicrobials; format: cell-based
Hafnia alvei [3] = test: as above; format: cell-based; conditions: Hafnia alvei
Hafnia alvei [4] = test: MIC by agar dilution (NCCLS M7-A4), 288 enteropathogenic isolates, eight quinolones; format: cell-based
Campylobacter jejuni [5] = test: MIC by agar dilution (NCCLS M7-A4), 5% sheep blood, microaerophilic 48 h; format: cell-based
Shigella spp. [6] = test: MIC by agar dilution (NCCLS M7-A4), 288 enteropathogenic isolates, gemifloxacin and 15 other antimicrobials; format: cell-based; conditions: Shigella spp. N= 21
Method: [A. hydrophila (12), and A. sobria (4)], and 91 Campylobacter jejuni. […] The strains were stored in skimmed-milk at -80 °C until studied.
The plates were incubated aerobically at 35 °C for 24 h, except for Campylobacter jejuni, where a microaerophilic atmosphere was obtained by using Campy Pack (Becton Dickinson, Cockeysville, MD, USA), and incubation was for 48 h. All organisms were tested with an inoculum of ≅ 10^4 cfu/spot. MICs were defined as the lower antibiotic concentration with no visible growth.

Yersinia enterocolitica [7] = test: MIC by agar dilution (NCCLS M7-A4), 288 enteropathogenic isolates, eight quinolones; format: cell-based
Campylobacter jejuni [8] = test: MIC by agar dilution (NCCLS M7-A4), 288 enteropathogenic isolates, gemifloxacin and 15 other antimicrobials; conditions: Campylobacter jejuni
Shigella spp. [9] = test: MIC by agar dilution (NCCLS M7-A4), 288 enteropathogenic isolates, eight quinolones; format: cell-based
Aeromonas spp. [10] = test: MIC by agar dilution (NCCLS M7-A4), 288 enteropathogenic isolates, gemifloxacin and 15 other antimicrobials; format: cell-based; conditions: for MIC: Aeromonas
Salmonella spp. [11] = test: MIC by agar dilution (NCCLS M7-A4), 288 enteropathogenic isolates, eight quinolones; format: cell-based
Yersinia enterocolitica [12] = test: MIC by agar dilution (NCCLS M7-A4), 288 enteropathogenic isolates, gemifloxacin and 15 other antimicrobials; format: cell-based; conditions: Yersinia enterocolitica
Enterococcus faecalis = test: MIC by agar macrodilution (NCCLS), 373 Gram positive isolates, Athens 1998; format: cell-based
Staphylococcus aureus = test: as above; format: cell-based; conditions: Methicillin-susceptible Staphylococcus aureus (n = 85)
Streptococcus pneumoniae = test: MIC by E-test (broth microdilution for gemifloxacin), 107 pneumococcal carrier isolates, Athens 1998; format: cell-based; conditions: E-test; for MIC Range: in µg/mL (unit assumed); for MIC50 / MIC90: unit assumed
Method: Susceptibility testing was performed by agar dilution or epsilometer method (E-test), as recommended by the NCCLS. […] The susceptibility profiles of the strains were assessed using the Epsilometer method (E-test). The isolates were subdivided into two groups according to their penicillin susceptibility patterns (penicillin-susceptible and penicillin-intermediate.

Enterococcus faecium = test: MIC by agar macrodilution (NCCLS), 373 Gram positive isolates, Athens 1998; format: cell-based
[13] = 24 h, read-out: MIC (mg/L) Range
[14] = number of isolates at MIC […], n = 81
[15] = number of isolates with MIC […] µg/ml
[16] = number of isolates with MIC […]
[17] = Penicillin-intermediate S. pneumoniae (n = 24)
[18] = Penicillin-susceptible S. pneumoniae (n = 107)
[19] = number of isolates at MIC […], n = 14

## CCn1cc(C(=O)O)c(=O)c2ccc(C)nc21 [Nalidixic acid, nalidixic acid]
Aeromonas spp. [1]; Aeromonas
  MIC50: 0.12 µg/mL (≈ 0.517 µM)
  MIC90: 0.25 µg/mL (≈ 1.08 µM)
Aeromonas spp. [1]; Aeromonas spp.
  Non-susceptibility rate: 6.25% and 6.3%
Aeromonas spp. [1]; Aeromonas spp. (n = 16)
  % Susceptible: 93.75%
Salmonella spp. [2]
  MIC: > 128 mg/L
Salmonella spp. [2]; S. hadar(2), isolates with MICs for ciprofloxacin ≥[…]
  MIC: >128 mg/L
Salmonella spp. [2]; Salmonella
  MIC: > 128 mg/L
Salmonella spp. [2]; Salmonella spp.
  Rates of non-susceptible microorganisms: 27%
Salmonella spp. [2]; Salmonella, read-out: MIC (mg/L) 50%
  MIC: 4 mg/L (≈ 17.2 µM)
Salmonella spp. [2]; Salmonella, read-out: MIC (mg/L) 90%
  MIC: > 128 mg/L
Hafnia alvei [3]; [13]
  MIC: 1 to 2 mg/L (≈ 4.31 to 8.61 µM)
Hafnia alvei [3]; read-out: MIC (mg/L) 50%
  MIC: 2 mg/L (≈ 8.61 µM)
Hafnia alvei [3]; read-out: MIC (mg/L) 90%
  MIC: 2 mg/L (≈ 8.61 µM)
Hafnia alvei [4]; H. alvei
  Non-susceptibility rate: 0%
Hafnia alvei [4]; Hafnia alvei
  MIC50: 2 µg/mL (≈ 8.61 µM)
  MIC90: 2 µg/mL (≈ 8.61 µM)
Hafnia alvei [4]; Hafnia alvei (n = 32)
  % Susceptible: 100%
  MIC Range: 1 to 2 µg/mL
Campylobacter jejuni [5]; C. jejuni
  Non-susceptibility rate: 69.24%
Campylobacter jejuni [5]; Campylobacter jejuni
  MIC50: > 128 µg/mL
  MIC90: > 128 µg/mL
Campylobacter jejuni [5]; Campylobacter jejuni (n=91)
  % Susceptible: 30.76%
Shigella spp. [6]; [13]
  MIC: 1 to 2 mg/L (≈ 4.31 to 8.61 µM)
Shigella spp. [6]; read-out: MIC (mg/L) 50%
  MIC: 1 mg/L (≈ 4.31 µM)
Shigella spp. [6]; read-out: MIC (mg/L) 90%
  MIC: 2 mg/L (≈ 8.61 µM)
Yersinia enterocolitica [7]; Y. enterocolitica
  Non-susceptibility rate: 4.5%
Yersinia enterocolitica [7]; Yersinia enterocolitica
  MIC50: 2 µg/mL (≈ 8.61 µM)
  MIC90: 2 µg/mL (≈ 8.61 µM)
Yersinia enterocolitica [7]; Yersinia enterocolitica (n = 22)
  % Susceptible: 95.5%
Campylobacter jejuni [8]; read-out: MIC (mg/L) 50%
  MIC: > 128 mg/L
Campylobacter jejuni [8]; read-out: MIC (mg/L) 90%
  MIC: > 128 mg/L
Shigella spp. [9]; Shigella spp.
  Non-susceptibility rate: 0%
Shigella spp. [9]; Shigella spp. (n = 21)
  % Susceptible: 100%
  MIC50: 1 µg/mL (≈ 4.31 µM)
  MIC90: 2 µg/mL (≈ 8.61 µM)
  MIC Range: 1 to 2 µg/mL
Aeromonas spp. [10]; Aeromonas spp.
  Rates of non-susceptible microorganisms: 6%
Aeromonas spp. [10]; read-out: MIC (mg/L) 50%
  MIC: 0.12 mg/L (≈ 0.517 µM)
Aeromonas spp. [10]; read-out: MIC (mg/L) 90%
  MIC: 0.25 mg/L (≈ 1.08 µM)
Salmonella spp. [11]
  MIC: > 128 µg/mL
Salmonella spp. [11]; Salmonella
  MIC: > 128 µg/mL
  MIC50: 4 µg/mL (≈ 17.2 µM)
  MIC90: > 128 µg/mL
Salmonella spp. [11]; Salmonella spp.
  Non-susceptibility rate: 27%
Salmonella spp. [11]; Salmonella spp. (n = 106)
  % Susceptible: 73%
Yersinia enterocolitica [12]
  Rates of non-susceptible microorganisms: 5%
Yersinia enterocolitica [12]; read-out: MIC (mg/L) 50%
  MIC: 2 mg/L (≈ 8.61 µM)
Yersinia enterocolitica [12]; read-out: MIC (mg/L) 90%
  MIC: 2 mg/L (≈ 8.61 µM)

## Teicoplanin
Enterococcus faecalis; n = 81 isolates
  MIC50: 0.5 µg/mL
  MIC90: 1 µg/mL
  MIC Range: 0.06 to 16 µg/mL
Enterococcus faecalis; number of isolates at MIC 0.03 µg/ml, n = 81
  MIC distribution (µg/ml) 0.03: 0
Enterococcus faecalis; number of isolates at MIC 0.06 µg/ml, n = 81
  MIC distribution (µg/ml) 0.06: 2
Enterococcus faecalis; number of isolates at MIC 0.5 µg/ml, n = 81
  MIC distribution (µg/ml) 0.5: 35
Enterococcus faecalis; number of isolates at MIC 1 µg/ml, n = 81
  MIC distribution (µg/ml) 1: 27
Enterococcus faecalis; number of isolates at MIC 2 µg/ml, n = 81
  MIC distribution (µg/ml) 2: 4
Enterococcus faecalis; number of isolates at MIC 4 µg/ml, n = 81
  MIC distribution (µg/ml) 4: 0
Enterococcus faecalis; number of isolates at MIC 8 µg/ml, n = 81
  MIC distribution (µg/ml) 8: 0
Enterococcus faecalis; number of isolates at MIC 16 µg/ml, n = 81
  MIC distribution (µg/ml) 16: 1
Enterococcus faecalis; [14]
  MIC distribution (µg/ml) 0.125: 6
  MIC distribution (µg/ml) 0.25: 6
Enterococcus faecalis; number of isolates at MIC ≤[…], n = 81
  MIC distribution (µg/ml) ≤0.015: 0
Enterococcus faecalis; number of isolates at MIC ≥32 µg/ml, n = 81
  MIC distribution (µg/ml) ≥32: 0
Staphylococcus aureus
  MIC50: 1 µg/mL
  MIC90: 2 µg/mL
  MIC Range: 0.5 to 8 µg/mL
Staphylococcus aureus; number of isolates with MIC 0.06 µg/ml
  MIC distribution (µg/ml) 0.06: 0
Staphylococcus aureus; number of isolates with MIC 0.5 µg/ml
  MIC distribution (µg/ml) 0.5: 26
Staphylococcus aureus; number of isolates with MIC 1 µg/ml
  MIC distribution (µg/ml) 1: 40
Staphylococcus aureus; number of isolates with MIC 2 µg/ml
  MIC distribution (µg/ml) 2: 17
Staphylococcus aureus; number of isolates with MIC 4 µg/ml
  MIC distribution (µg/ml) 4: 0
Staphylococcus aureus; number of isolates with MIC 8 µg/ml
  MIC distribution (µg/ml) 8: 2
Staphylococcus aureus; number of isolates with MIC >[…] µg/ml
  MIC distribution (µg/ml) >64: 0
Staphylococcus aureus; [15]
  MIC distribution (µg/ml) 16: 0
  MIC distribution (μg/ml) 32: 0
  MIC distribution (μg/ml) 64: 0
Staphylococcus aureus; [16]
  MIC distribution (µg/ml) 0.125: 0
  MIC distribution (µg/ml) 0.25: 0
Staphylococcus aureus; number of isolates with MIC ≤0.03 µg/ml
  MIC distribution (µg/ml) ≤0.03: 0
Streptococcus pneumoniae; [17]
  MIC Range: 0.023-0.125
  MIC50: 0.064 µg/mL
  MIC90: 0.125 µg/mL
Streptococcus pneumoniae; [18]
  MIC Range: 0.023-3
  MIC50: 0.064 µg/mL
  MIC90: 0.38 µg/mL
Enterococcus faecium; n = 14 isolates
  MIC50: 0.5 µg/mL
  MIC90: 1 µg/mL
  MIC Range: 0.25 to 4 µg/mL
Enterococcus faecium; number of isolates at MIC 0.03 µg/ml, n = 14
  MIC distribution (µg/ml) 0.03: 0
Enterococcus faecium; number of isolates at MIC 0.06 µg/ml, n = 14
  MIC distribution (µg/ml) 0.06: 0
Enterococcus faecium; number of isolates at MIC 0.5 µg/ml, n = 14
  MIC distribution (µg/ml) 0.5: 4
Enterococcus faecium; number of isolates at MIC 1 µg/ml, n = 14
  MIC distribution (µg/ml) 1: 6
Enterococcus faecium; number of isolates at MIC 2 µg/ml, n = 14
  MIC distribution (µg/ml) 2: 0
Enterococcus faecium; number of isolates at MIC 4 µg/ml, n = 14
  MIC distribution (µg/ml) 4: 1
Enterococcus faecium; number of isolates at MIC 8 µg/ml, n = 14
  MIC distribution (µg/ml) 8: 0
Enterococcus faecium; number of isolates at MIC 16 µg/ml, n = 14
  MIC distribution (µg/ml) 16: 0
Enterococcus faecium; [19]
  MIC distribution (µg/ml) 0.125: 0
  MIC distribution (µg/ml) 0.25: 3
Enterococcus faecium; number of isolates at MIC ≤[…], n = 14
  MIC distribution (µg/ml) ≤0.015: 0
Enterococcus faecium; number of isolates at MIC ≥32 µg/ml, n = 14
  MIC distribution (µg/ml) ≥32: 0
